Assay results from US20230365592A1 (Agios Pharmaceuticals, Inc., priority 2022, published 2023).

Biological target: T1, human PAH with the R408W mutation (Homo sapiens, UniProt P00439, R408W)
T1 construct: expressed in transfected cells
T1 sequence (P00439 1-452 R408W): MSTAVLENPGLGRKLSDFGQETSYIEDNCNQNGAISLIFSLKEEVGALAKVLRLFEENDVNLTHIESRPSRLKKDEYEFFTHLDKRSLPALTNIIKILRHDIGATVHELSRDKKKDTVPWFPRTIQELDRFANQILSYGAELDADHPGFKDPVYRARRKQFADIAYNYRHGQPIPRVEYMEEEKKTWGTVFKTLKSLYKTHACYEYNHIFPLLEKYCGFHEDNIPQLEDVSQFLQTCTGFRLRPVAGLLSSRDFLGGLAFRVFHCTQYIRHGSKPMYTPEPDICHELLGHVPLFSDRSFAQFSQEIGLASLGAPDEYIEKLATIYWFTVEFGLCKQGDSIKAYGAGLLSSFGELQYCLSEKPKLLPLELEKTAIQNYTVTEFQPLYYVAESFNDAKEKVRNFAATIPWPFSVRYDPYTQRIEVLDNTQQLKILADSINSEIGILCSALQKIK
Assay: Cell Based Phenylalanine Flux Assay;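 note: after compound treatment, cells received sepiapterin plus isotope-labelled Phenylalanine for 4 hours, then labelled Tyrosine in the medium was quantified, 10-point 2-fold dilution series run in duplicate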
Details: A375 cells expressing R408W PAH; 24 hrs with compound, then 20 µM sepiapterin and 800 µM 13C9,15N-Phenylalanine for 4 hours; 13C-Tyrosine by LC-MS; average where tested multiple times; read-out: AC50

AC50 [µM] | SMILES
1 to 5 | Cc1cccn2nc(C3c4nc[nH]c4CCN3C(=O)c3oc(C(C)O)nc3C(F)F)cc12 (stereo not shown)
1 to 5 | NC(=O)c1ncoc1C(=O)N1CCc2[nH]cnc2C1c1cc2ccccn2n1 (stereo not shown)
1 to 5 | FC(F)c1cccn2nc(C3c4nc[nH]c4CCN3c3nnc(-c4ncccn4)o3)cc12 (stereo not shown)

SMILES | AC50 [µM]
CN(C)Cc1ccc2c(C(=O)N3CCc4[nH]cnc4C3c3cc4ccccn4n3)cnn2c1 (single isomer, unassigned) | 1 to 5

Same assay, conditions: A375 cells expressing human PAH R408W; 24 hrs compound incubation; 13C-Tyrosine by LC-MS; average where tested multiple times; read-out: AC50

AC50 [µM] | SMILES
> 5 | Cn1cc(-c2nnc(C(=O)N3CCc4[nH]cnc4[C@@H]3c3cc4c(C5CC5)cccn4n3)o2)cn1 [Example 1877, (R)-(4-(4-cyclopropylpyrazolo[1,5-a]pyridin-2-yl)-1,4,6,7-tetrahydro-5H-imidazo[4,5-c]pyridin-5-yl)(5-(1-methyl-1H-pyrazol-4-yl)-1,3,4-oxadiazol-2-yl)methanone]
1 to 5 | CC(C)(C)c1nnc(C(=O)N2CCc3[nH]cnc3[C@H]2c2cc3cccc(C(F)(F)F)n3n2)o1 [Example 2409, (S)-(5-(tert-butyl)-1,3,4-oxadiazol-2-yl)(4-(7-(trifluoromethyl)pyrazolo[1,5-a]pyridin-2-yl)-6,7-dihydro-1H-imidazo[4,5-c]pyridin-5(4H)-yl)methanone]
> 5 | FC(F)(F)Oc1cccn2nc([C@H]3c4nc[nH]c4CCN3c3ncccn3)cc12 [Example 2271, (R)-5-(pyrimidin-2-yl)-4-(4-(trifluoromethoxy)pyrazolo[1,5-a]pyridin-2-yl)-4,5,6,7-tetrahydro-1H-imidazo[4,5-c]pyridine]
< 0.5 | FC(F)(F)c1ccc(N2CCc3[nH]cnc3[C@H]2c2cc3c(C(F)(F)F)cccn3n2)nc1 [Example 2013, (S)-4-(4-(trifluoromethyl)pyrazolo[1,5-a]pyridin-2-yl)-5-(5-(trifluoromethyl)pyridin-2-yl)-4,5,6,7-tetrahydro-1H-imidazo[4,5-c]pyridine]
1 to 5 | CC(C)(F)c1nnc(C(=O)N2CCc3[nH]cnc3[C@H]2c2cc3ccc(C(F)(F)F)cn3n2)o1 [Example 2420, (S)-(5-(2-fluoropropan-2-yl)-1,3,4-oxadiazol-2-yl)(4-(6-(trifluoromethyl)pyrazolo[1,5-a]pyridin-2-yl)-6,7-dihydro-1H-imidazo[4,5-c]pyridin-5(4H)-yl)methanone]
< 0.5 | FC(F)(F)c1nnc(N2CCc3[nH]cnc3[C@H]2c2cc3c(C4CC4)cccn3n2)o1 [Example 2057, (S)-2-(4-(4-cyclopropylpyrazolo[1,5-a]pyridin-2-yl)-1,4,6,7-tetrahydro-5H-imidazo[4,5-c]pyridin-5-yl)-5-(trifluoromethyl)-1,3,4-oxadiazole]
> 5 | Cc1cccn2nc([C@H]3c4nc[nH]c4CCN3c3ccccn3)cc12 [Example 2126, (R)-4-(4-methylpyrazolo[1,5-a]pyridin-2-yl)-5-(pyridin-2-yl)-4,5,6,7-tetrahydro-1H-imidazo[4,5-c]pyridine]
> 5 | Cn1ccc(-c2nnc(C(=O)N3CCc4[nH]cnc4[C@@H]3c3cc4c(F)cccn4n3)s2)n1 [Example 1994, (R)-(4-(4-fluoropyrazolo[1,5-a]pyridin-2-yl)-1,4,6,7-tetrahydro-5H-imidazo[4,5-c]pyridin-5-yl)(5-(1-methyl-1H-pyrazol-3-yl)-1,3,4-thiadiazol-2-yl)methanone]
> 5 | CC(C)c1cccn2nc([C@H]3c4nc[nH]c4CCN3C(=O)c3nnc(-c4ccccn4)o3)cc12 [Example 1904, (R)-(4-(4-isopropylpyrazolo[1,5-a]pyridin-2-yl)-1,4,6,7-tetrahydro-5H-imidazo[4,5-c]pyridin-5-yl)(5-(pyridin-2-yl)-1,3,4-oxadiazol-2-yl)methanone]
0.5 to 1 | Fc1cccn2nc([C@@H]3c4nc[nH]c4CCN3c3ccccn3)cc12 [Example 1977, (S)-4-(4-fluoropyrazolo[1,5-a]pyridin-2-yl)-5-(pyridin-2-yl)-4,5,6,7-tetrahydro-1H-imidazo[4,5-c]pyridine]

Same assay, conditions: A375 cells expressing human R408W PAH; 24 hrs compound incubation; 13C-Tyrosine by LC-MS; average where tested multiple times; read-out: AC50

SMILES | AC50 [µM]
Cn1nc(C(F)F)nc1C(=O)N1CCc2[nH]cnc2[C@H]1c1cc2c(Cl)cccn2n1 [Example 780, (S)-(4-(4-chloropyrazolo[1,5-a]pyridin-2-yl)-6,7-dihydro-1H-imidazo[4,5-c]pyridin-5(4H)-yl)(3-(difluoromethyl)-1-methyl-1H-1,2,4-triazol-5-yl)methanone] | < 0.5
CC(C)n1nccc1C(=O)N1CCc2[nH]cnc2[C@H]1c1cc2ccccn2n1 [Example 856, (S)-(1-isopropyl-1H-pyrazol-5-yl)(4-(pyrazolo[1,5-a]pyridin-2-yl)-6,7-dihydro-1H-imidazo[4,5-c]pyridin-5(4H)-yl)methanone] | < 0.5
Cc1cccc2cc([C@H]3c4nc[nH]c4CCN3C(=O)c3cc(C(F)F)nn3C)nn12 [Example 1389, (R)-(3-(difluoromethyl)-1-methyl-1H-pyrazol-5-yl)(4-(7-methylpyrazolo[1,5-a]pyridin-2-yl)-6,7-dihydro-1H-imidazo[4,5-c]pyridin-5(4H)-yl)methanone] | > 5
CC(C)(O)c1nc(C(F)(F)F)c(C(=O)N2CCc3[nH]cnc3[C@H]2c2cc3cccc(C(F)(F)F)n3n2)o1 [Example 1178, (S)-(2-(2-hydroxypropan-2-yl)-4-(trifluoromethyl)oxazol-5-yl)(4-(7-(trifluoromethyl)pyrazolo[1,5-a]pyridin-2-yl)-6,7-dihydro-1H-imidazo[4,5-c]pyridin-5(4H)-yl)methanone] | < 0.5
Cc1ccc(-c2nnc(C(=O)N3CCc4[nH]cnc4[C@H]3c3cc4c(F)cccn4n3)o2)nc1 [Example 877, (S)-(4-(4-fluoropyrazolo[1,5-a]pyridin-2-yl)-6,7-dihydro-1H-imidazo[4,5-c]pyridin-5(4H)-yl)(5-(5-methylpyridin-2-yl)-1,3,4-oxadiazol-2-yl)methanone] | < 0.5
Cc1cccn2nc([C@H]3c4nc[nH]c4CCN3C(=O)c3oc(-c4cn(C)cn4)nc3C(F)F)cc12 [Example 930, (R)-(4-(difluoromethyl)-2-(1-methyl-1H-imidazol-4-yl)oxazol-5-yl)(4-(4-methylpyrazolo[1,5-a]pyridin-2-yl)-6,7-dihydro-1H-imidazo[4,5-c]pyridin-5(4H)-yl)methanone] | > 5
O=C(c1nnc(-c2ccn(C(F)F)n2)o1)N1CCc2[nH]cnc2[C@@H]1c1cc2c(Cl)cccn2n1 [Example 1119, (R)-(4-(4-chloropyrazolo[1,5-a]pyridin-2-yl)-6,7-dihydro-1H-imidazo[4,5-c]pyridin-5(4H)-yl)(5-(1-(difluoromethyl)-1H-pyrazol-3-yl)-1,3,4-oxadiazol-2-yl)methanone] | > 5
COc1cccn2nc([C@@H]3c4nc[nH]c4CCN3C(=O)c3cc(C(F)F)nn3C)cc12 [Example 886, (S)-(3-(difluoromethyl)-1-methyl-1H-pyrazol-5-yl)(4-(4-methoxypyrazolo[1,5-a]pyridin-2-yl)-6,7-dihydro-1H-imidazo[4,5-c]pyridin-5(4H)-yl)methanone] | < 0.5
Cc1cccn2nc([C@H]3c4nc[nH]c4CCN3C(=O)c3nnc(C4CC(F)(F)C4)o3)cc12 [Example 1599, (R)-(5-(3,3-difluorocyclobutyl)-1,3,4-oxadiazol-2-yl)(4-(4-methylpyrazolo[1,5-a]pyridin-2-yl)-6,7-dihydro-1H-imidazo[4,5-c]pyridin-5(4H)-yl)methanone] | > 5
O=C(c1cnn2cc(-c3ccccn3)ccc12)N1CCc2[nH]cnc2[C@@H]1c1cc2c(C(F)(F)F)cccn2n1 [Example 1551, (R)-(6-(pyridin-2-yl)pyrazolo[1,5-a]pyridin-3-yl)(4-(4-(trifluoromethyl)pyrazolo[1,5-a]pyridin-2-yl)-6,7-dihydro-1H-imidazo[4,5-c]pyridin-5(4H)-yl)methanone] | 1 to 5
O=C(c1nnc(C2CC2)o1)N1CCc2[nH]cnc2[C@@H]1c1cc2c(C(F)F)cccn2n1 [Example 981, (R)-(5-cyclopropyl-1,3,4-oxadiazol-2-yl)(4-(4-(difluoromethyl)pyrazolo[1,5-a]pyridin-2-yl)-6,7-dihydro-1H-imidazo[4,5-c]pyridin-5(4H)-yl)methanone] | 1 to 5

The remaining lines, values ahead:

AC50 [µM] | SMILES
0.5 to 1 | Cn1ccc(-c2ccc3c(C(=O)N4CCc5[nH]cnc5[C@H]4c4cc5c(F)cccn5n4)cnn3c2)n1 [Example 1646, (S)-(4-(4-fluoropyrazolo[1,5-a]pyridin-2-yl)-6,7-dihydro-1H-imidazo[4,5-c]pyridin-5(4H)-yl)(6-(1-methyl-1H-pyrazol-3-yl)pyrazolo[1,5-a]pyridin-3-yl)methanone]
< 0.5 | O=C(c1nnc(-c2ccccn2)o1)N1CCc2[nH]cnc2[C@H]1c1cc2c(OC(F)F)cccn2n1 [Example 1689, (S)-(4-(4-(difluoromethoxy)pyrazolo[1,5-a]pyridin-2-yl)-6,7-dihydro-1H-imidazo[4,5-c]pyridin-5(4H)-yl)(5-(pyridin-2-yl)-1,3,4-oxadiazol-2-yl)methanone]
0.5 to 1 | O=C(c1nnc(C2CC(F)(F)C2)o1)N1CCc2[nH]cnc2[C@H]1c1cc2c(C(F)(F)F)cccn2n1 [Example 1600, (S)-(5-(3,3-difluorocyclobutyl)-1,3,4-oxadiazol-2-yl)(4-(4-(trifluoromethyl)pyrazolo[1,5-a]pyridin-2-yl)-6,7-dihydro-1H-imidazo[4,5-c]pyridin-5(4H)-yl)methanone]
